Measured values from ChEMBL document CHEMBL1201862, “PubChem BioAssay data set” (2004).
“And” between values parts separate entries of the source, which are not always exact repeats. Identical values can stand only once.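 The compound was tested at five concentrations on cells cultured in 96-well plates, with a 48-hour exposure period. GI50 marks 50% less growth.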 The source made the active and inactive calls. Rule as the data show it: active = GI50 up to about 1.1 µM and inactive = higher.

How the values were obtained:
Experiment in all cases: NCI-60 cell line screen, 48 h
PC-3 = test system: PC-3
SNB-75 = test system: SNB-75
M14 = test system: M14
EKVX = test system: EKVX
HOP-62 = test system: HOP-62
MDA-MB-231 = test system: MDA-MB-231
SK-MEL-2 = test system: SK-MEL-2
COLO 205 = test system: COLO 205
UACC-257 = test system: UACC-257
UACC-62 = test system: UACC-62
OVCAR-4 = test system: OVCAR-4
A549 = test system: A549
LOX IMVI = test system: LOX IMVI
SK-MEL-5 = test system: SK-MEL-5
T47D = test system: T47D
Hs-578T = test system: Hs-578T
OVCAR-3 = test system: OVCAR-3
HCT-15 = test system: HCT-15
SR = test system: SR
HOP-92 = test system: HOP-92
SN12C = test system: SN12C
SF-295 = test system: SF-295
SW-620 = test system: SW-620
SF-268 = test system: SF-268
NCI-H522 = test system: NCI-H522
IGROV-1 = test system: IGROV-1
ACHN = test system: ACHN
HT-29 = test system: HT-29
OVCAR-8 = test system: OVCAR-8
NCI-H460 = test system: NCI-H460
SK-OV-3 = test system: SK-OV-3
NCI/ADR-RES = test system: NCI/ADR-RES
Malme-3M = test system: Malme-3M
MCF7 = test system: MCF7
RXF 393 = test system: RXF 393
CCRF-CEM = test system: CCRF-CEM
SF-539 = test system: SF-539
UO-31 = test system: UO-31
OVCAR-5 = test system: OVCAR-5
HCC 2998 = test system: HCC 2998
MOLT-4 = test system: MOLT-4
KM12 = test system: KM12
DU-145 = test system: DU-145
HCT-116 = test system: HCT-116
A498 = test system: A498
NCI-H23 = test system: NCI-H23
NCI-H226 = test system: NCI-H226
SNB-19 = test system: SNB-19
MDA-N = test system: MDA-N
RPMI-8226 = test system: RPMI-8226
HL-60 = test system: HL-60
K562 = test system: K562
CAKI-1 = test system: CAKI-1
TK-10 = test system: TK-10
786-0 = test system: 786-0
SK-MEL-28 = test system: SK-MEL-28
MDA-MB-435 = test system: MDA-MB-435
U-251 = test system: U-251

c1cc2nnc1SCCSCCSCCSc1ccc(nn1)SCCSCCSCCS2
GI50 (PC-3): > 100 µM (inactive)
GI50 (SNB-75): 45.7 µM (inactive)
GI50 (M14): > 100 µM (inactive)
GI50 (EKVX): > 100 µM (inactive)
GI50 (HOP-62): 44.9 µM (inactive)
GI50 (MDA-MB-231): > 100 µM (inactive)
GI50 (SK-MEL-2): > 100 µM (inactive)
GI50 (COLO 205): > 100 µM (inactive)
GI50 (UACC-257): > 100 µM (inactive)
GI50 (UACC-62): > 100 µM (inactive)
GI50 (OVCAR-4): > 100 µM (inactive)
GI50 (A549): > 100 µM (inactive)
GI50 (LOX IMVI): > 100 µM (inactive)
GI50 (SK-MEL-5): > 100 µM (inactive)
GI50 (T47D): > 100 µM (inactive)
GI50 (Hs-578T): 64.7 µM (inactive)
GI50 (OVCAR-3): > 100 µM (inactive)
GI50 (HCT-15): > 100 µM
GI50 (SR): > 100 µM (inactive)
GI50 (HOP-92): 57.4 µM (inactive)
GI50 (SN12C): > 100 µM (inactive)
GI50 (SF-295): > 100 µM (inactive)
GI50 (SW-620): > 100 µM (inactive)
GI50 (SF-268): > 100 µM (inactive)
GI50 (NCI-H522): > 100 µM (inactive)
GI50 (IGROV-1): > 100 µM (inactive)
GI50 (ACHN): > 100 µM (inactive)
GI50 (HT-29): > 100 µM (inactive)
GI50 (OVCAR-8): > 100 µM (inactive)
GI50 (NCI-H460): > 100 µM (inactive)
GI50 (SK-OV-3): > 100 µM (inactive)
GI50 (NCI/ADR-RES): > 100 µM (inactive)
GI50 (Malme-3M): > 100 µM (inactive)

Cc1cc(O)c2c(c1)C(=O)C=CC2=O [RAMENTACEONE]
GI50 (PC-3): 11.2 µM (inactive) and 17.7 µM (inactive)
GI50 (SNB-75): 15.5 µM (inactive) and 16.6 µM (inactive)
GI50 (M14): 6.68 µM (inactive) and 8.77 µM (inactive)
GI50 (MCF7): 7.05 µM (inactive) and 4.79 µM (inactive)
GI50 (HOP-62): 19.5 µM (inactive) and 21 µM (inactive)
GI50 (MDA-MB-231): 5.06 µM (inactive) and 9.31 µM (inactive)
GI50 (RXF 393): 4.41 µM (inactive) and 2.7 µM (inactive)
GI50 (CCRF-CEM): 121 nM (active) and 212 nM (active)
GI50 (SF-539): 16.9 µM (inactive) and 14.9 µM (inactive)
GI50 (SK-MEL-2): 14.9 µM (inactive) and 19.1 µM (inactive)
GI50 (COLO 205): 3.92 µM (inactive) and 2.74 µM (inactive)
GI50 (UO-31): 4.69 µM (inactive) and 2.91 µM (inactive)
GI50 (OVCAR-5): 19.4 µM (inactive) and 18 µM (inactive)
GI50 (HCC 2998): 11.2 µM (inactive) and 15.6 µM (inactive)
GI50 (MOLT-4): 424 nM (active) and 298 nM (active)
GI50 (UACC-257): 5.25 µM (inactive) and 4.05 µM (inactive)
GI50 (UACC-62): 4.72 µM (inactive) and 7.38 µM (inactive)
GI50 (KM12): 14.1 µM (inactive) and 16.1 µM (inactive)
GI50 (DU-145): 19.7 µM (inactive) and 16.4 µM (inactive)
GI50 (A549): 25.4 µM (inactive) and 19.1 µM (inactive)
GI50 (HCT-116): 4.34 µM (inactive) and 3.72 µM (inactive)
GI50 (LOX IMVI): 3.04 µM (inactive) and 5.55 µM (inactive)
GI50 (T47D): 2.65 µM (inactive) and 3.11 µM (inactive)
GI50 (Hs-578T): 19.4 µM (inactive) and 15.7 µM (inactive)
GI50 (OVCAR-3): 1.66 µM (inactive) and 2.27 µM (inactive)
GI50 (A498): 22 µM (inactive) and 31.4 µM (inactive)
GI50 (SN12C): 7.76 µM (inactive) and 12.1 µM (inactive)
GI50 (SF-295): 16.5 µM (inactive) and 17.4 µM (inactive)
GI50 (SF-268): 17.7 µM (inactive) and 10.4 µM (inactive)
GI50 (NCI-H23): 8.39 µM (inactive) and 12.4 µM (inactive)
GI50 (IGROV-1): 14.1 µM (inactive) and 9.38 µM (inactive)
GI50 (NCI-H226): 18.6 µM (inactive) and 17.8 µM (inactive)
GI50 (HT-29): 7.05 µM (inactive) and 5.74 µM (inactive)
GI50 (NCI-H460): 19.3 µM (inactive) and 16.3 µM (inactive)
GI50 (SK-OV-3): 27.9 µM (inactive) and 28 µM (inactive)
GI50 (NCI/ADR-RES): 8.15 µM (inactive) and 15.9 µM (inactive)
GI50 (SNB-19): 20.6 µM (inactive) and 17.1 µM (inactive)
GI50 (MDA-N): 2.21 µM (inactive) and 3.56 µM (inactive)

CC1C(=O)C(C)C(c2ccccc2)N(C)C1c1ccccc1 (stereo unspecified)
GI50 (OVCAR-5): 50.9 µM (inactive)
GI50 (MOLT-4): 19.9 µM (inactive)
GI50 (SR): 20.2 µM (inactive)
GI50 (RPMI-8226): 21.8 µM (inactive)
GI50 (HT-29): 28.6 µM (inactive)
GI50 (HL-60): 20.7 µM (inactive)

CCOC(=O)c1c(SC(=O)c2cc(OC)c(OC)c(OC)c2)n(-c2ccccc2)c(=S)n(-c2ccccc2)c1=O
GI50 (PC-3): > 100 µM (inactive)
GI50 (K562): > 100 µM (inactive)
GI50 (SNB-75): > 100 µM (inactive)
GI50 (M14): > 100 µM (inactive)
GI50 (EKVX): > 100 µM (inactive)
GI50 (MCF7): > 100 µM (inactive)
GI50 (HOP-62): > 100 µM (inactive)
GI50 (MDA-MB-231): > 100 µM (inactive)
GI50 (RXF 393): > 100 µM (inactive)
GI50 (CCRF-CEM): > 100 µM (inactive)
GI50 (SF-539): > 100 µM (inactive)
GI50 (CAKI-1): > 100 µM (inactive)
GI50 (COLO 205): > 100 µM (inactive)
GI50 (OVCAR-5): > 100 µM (inactive)
GI50 (HCC 2998): > 100 µM (inactive)
GI50 (MOLT-4): > 100 µM (inactive)
GI50 (UACC-257): > 100 µM (inactive)
GI50 (UACC-62): > 100 µM (inactive)
GI50 (KM12): > 100 µM (inactive)
GI50 (DU-145): > 100 µM (inactive)
GI50 (OVCAR-4): > 100 µM (inactive)
GI50 (A549): > 100 µM (inactive)
GI50 (HCT-116): > 100 µM (inactive)
GI50 (LOX IMVI): > 100 µM (inactive)
GI50 (TK-10): > 100 µM (inactive)
GI50 (T47D): > 100 µM (inactive)
GI50 (786-0): > 100 µM (inactive)
GI50 (Hs-578T): > 100 µM (inactive)
GI50 (OVCAR-3): > 100 µM (inactive)
GI50 (A498): > 100 µM (inactive)
GI50 (HCT-15): > 100 µM
GI50 (SK-MEL-28): > 100 µM (inactive)
GI50 (MDA-MB-435): > 100 µM (inactive)
GI50 (SR): > 100 µM (inactive)
GI50 (HOP-92): > 100 µM (inactive)
GI50 (U-251): > 100 µM (inactive)
GI50 (SN12C): > 100 µM (inactive)
GI50 (SF-295): > 100 µM (inactive)
GI50 (SW-620): > 100 µM (inactive)
GI50 (SF-268): > 100 µM (inactive)
GI50 (NCI-H23): > 100 µM (inactive)
GI50 (NCI-H522): > 100 µM (inactive)
GI50 (IGROV-1): > 100 µM (inactive)
GI50 (ACHN): > 100 µM (inactive)
GI50 (NCI-H226): > 100 µM (inactive)
GI50 (HT-29): > 100 µM (inactive)
GI50 (OVCAR-8): > 100 µM (inactive)
GI50 (HL-60): > 100 µM (inactive)
GI50 (NCI-H460): > 100 µM (inactive)
GI50 (SK-OV-3): > 100 µM (inactive)
GI50 (NCI/ADR-RES): > 100 µM (inactive)
GI50 (SNB-19): > 100 µM (inactive)
GI50 (MDA-N): > 100 µM (inactive)
GI50 (Malme-3M): 51.8 µM (inactive)
